For test [1], the target named is Carbonic anhydrase 9 (Homo sapiens, UniProt Q16790). Description: Inhibition of human transmembrane carbonic anhydrase 9 by stopped flow CO2 hydration assay.
Test [2] concerns the target Carbonic anhydrase 1 (Homo sapiens, UniProt P00915). Description: Inhibition of human cytosolic carbonic anhydrase 1 by stopped flow CO2 hydration assay.

Molecules are shown by their SMILES. pKi: −log10 of the molar value. A value given as a limit tells only on which side of the number the result lay.

Sequence of Carbonic anhydrase 1 (P00915 whole entry): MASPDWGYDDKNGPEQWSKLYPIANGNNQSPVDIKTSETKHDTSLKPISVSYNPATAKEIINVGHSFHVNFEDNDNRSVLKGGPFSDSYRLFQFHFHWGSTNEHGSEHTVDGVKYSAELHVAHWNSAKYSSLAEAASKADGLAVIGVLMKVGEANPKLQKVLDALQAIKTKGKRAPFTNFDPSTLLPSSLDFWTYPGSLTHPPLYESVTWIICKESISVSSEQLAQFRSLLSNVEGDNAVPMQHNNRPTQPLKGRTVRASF

As for `NS(=O)(=O)c1ccc(-c2nnc3sc(-c4ccc(Br)cc4)nn23)cc1`, the pKi (as a rule, the negative decadic logarithm of the Ki, by convention in mol/L) in test [1] is 6.98.

`NS(=O)(=O)c1ccc(-n2c(-c3ccc(Cl)cc3)n[nH]c2=S)cc1` showed a pKi in test [1] of 8.24.

On to `COc1ccc(-c2nn3c(-c4ccc(S(N)(=O)=O)cc4)nnc3s2)cc1`, for which the results for the negative logarithm of the Ki (pKi) in test [1] and in test [2] were 6.37 and below 5.00, respectively.

`NS(=O)(=O)c1ccc(-c2n[nH]c(=S)n2-c2ccc(S(N)(=O)=O)cc2)cc1`: in test [1], the pKi was 8.05.

Regarding `NS(=O)(=O)c1ccc(-c2nnc3n2N=C(c2ccc(Br)cc2)CS3)cc1`, the pKi in test [1] is 8.43.

As for `Cc1ccc(-c2n[nH]c(=S)n2-c2ccc(S(N)(=O)=O)cc2)cc1`, the negative logarithm of the Ki (pKi) in test [1] is 7.80.

Regarding `NS(=O)(=O)c1ccc(-c2nnc3n2N=C(c2ccc(F)cc2)CS3)cc1`, the negative-log Ki (pKi) in test [1] is 7.60.

As for `NS(=O)(=O)c1ccc(-n2c(-c3ccc(Br)cc3)n[nH]c2=S)cc1`, the negative logarithm of the Ki (pKi) in test [1] was 8.12. Compared with the last compound, the pKi is 0.52 log units higher.

In test [1], `Cc1ccc(C2=Nn3c(nnc3-c3ccc(S(N)(=O)=O)cc3)SC2)cc1` showed a negative-log Ki (pKi) of 7.89.

In test [1], `NS(=O)(=O)c1ccc(-c2nnc3n2N=C(c2ccc([N+](=O)[O-])cc2)CS3)cc1` had a pKi of 6.94.

Regarding `NS(=O)(=O)c1ccc(-c2nnc3sc(-c4ccc(F)cc4)nn23)cc1`, the pKi in test [1] is 7.19; in test [2], below 5.00.

In test [1], `NS(=O)(=O)c1ccc(-c2nnc3n2N=C(c2ccccc2)CS3)cc1` showed a negative logarithm of the Ki (pKi) of 7.68.

Take `NS(=O)(=O)c1ccc(-c2nnc3sc(-c4ccccc4)nn23)cc1`: the pKi in test [1] is 6.94. This pKi lies 0.74 log units lower than the previous one.

Regarding `NS(=O)(=O)c1ccc(-c2nnc3sc(-c4ccc(Cl)cc4)nn23)cc1`, in test [1], the pKi was 7.05. The pKi values of the last two compounds are within 0.2 log units of each other.

Turning to `NS(=O)(=O)c1ccc(-c2nnc3sc(-c4ccc([N+](=O)[O-])cc4)nn23)cc1`, the negative logarithm of the Ki (pKi) in test [1] was 7.39; in test [2], below 5.00.

`NS(=O)(=O)c1ccc(-n2c(-c3ccc(F)cc3)n[nH]c2=S)cc1`: the negative logarithm of the Ki (pKi) in test [1] was 8.55.

As to `Cc1ccc(-c2nn3c(-c4ccc(S(N)(=O)=O)cc4)nnc3s2)cc1`, the pKi was 6.45 in test [1] and below 5.00 in test [2].

As for `NS(=O)(=O)c1ccc(-c2nnc3n2N=C(c2ccc(Cl)cc2)CS3)cc1`, the pKi in test [1] is 7.12.

The values are drawn from ChEMBL document CHEMBL3120130, “Benzenesulfonamide bearing 1,2,4-triazole scaffolds as potent inhibitors of tumor associated carbonic anhydrase isoforms hCA IX and hCA XII” (Bioorg Med Chem, 2014).
